Results on nine compounds are retold here after article PMC11768664 (Viruses, 2024).

The test system of data set [1] is W12I 20822 cervical precancer cells. In words: Growth inhibition MTT assay on W12 clone 20822 (type 1 integrant). It counts as cell-based. Background: Tetrazolium dyes change colour on reduction, which living cells bring about.
The test system of data set [2] is W12I 20861 cervical precancer cells. In words: Growth inhibition MTT assay on W12 clone 20861 (type 2 integrant). Type of data set: cell-based. The settings on record: 120 h, read-out: IC50, growth inhibitory activity on W12 clone 20861.
Data set [3] has as its system W12E 20850 cervical precancer cells. In words: Growth inhibition MTT assay on W12 clone 20850 (episomal HPV16). The settings on record: for IC50: 120 h, read-out: IC50, growth inhibitory activity on W12 clone 20850. It counts as cell-based.
The test system of data set [4] is W12I 20862 cervical precancer cells. In words: Growth inhibition MTT assay on W12 clone 20862 (type 2 integrant). It counts as cell-based.
Data set [5] concerns HeLa human cervical cancer cells. In words: Growth inhibition (proliferation) MTT assay on HeLa cells. Type of data set: cell-based. The settings on record: for IC50: Homo sapiens.
Another data set has as its system HT29 colon cancer cells. In words: Growth inhibition (proliferation) MTT assay on HT29 cells. The settings on record: Homo sapiens. It counts as cell-based.
Another data set deals with Na^+/K^+-ATPase. The arrangement: method as in earlier work. The settings on record: read-out: IC50, inhibition of the activity of the Na+/K+-ATPase, cited from earlier work.
Data set [6] concerns cell cycle genes in HeLa cells. In words: Gene expression analysis of HeLa cells treated with curcumin. The settings on record: curcumin 32 µM, 8 h. Type of data set: cell-based, human.
For data set [7], the system named is J2 3T3 mouse embryo fibroblasts (feeder cells). In words: Growth inhibition MTT assay on 3T3 feeder cells. It counts as cell-based. The settings on record: NIH3T3, read-out: IC50, growth inhibitory activity on 3T3 feeder cells.
For data set [8], the system named is HeLa human cervical cancer cells. In words: Combination growth inhibition assay and Combination Index on HeLa cells. Type of data set: cell-based.
[9] abbreviates: 120 h, read-out: IC50, growth inhibitory activity on W12 clone 20822.
[10] abbreviates: 120 h, read-out: IC50, growth inhibitory activity on W12 clone 20862.
Where [11] appears, read: MTT, 96 h (Figure 1 legend; table footnote prints 120 h), read-out: IC50, growth inhibitory activity on HeLa cells.
Where [12] appears, read: HT-29, HT29, MTT, 96 h (Figure 1 legend; table footnote prints 120 h), read-out: IC50, growth inhibitory activity on HT29 cells.

Values after ≈ are worked out from the molar mass of the structure shown. Values joined by “and” are separate entries in the source; they are usually repeats but may differ in a detail not shown here. Equal values may be shown once. Read-outs that look alike come from different tables or passages of the source. Bounds are passed on as bounds.

On to `COC1=CC(=O)O[C@@H](CCc2ccc3c(c2)OCO3)C1` [DHM, dihydromethysticin], for which the IC50 in data set [1] (setting [9]) was found to be 10.2 µg/mL; in data set [2], 12.4 µg/mL (≈ 44.9 µM); in [3], 24.7 µg/mL (≈ 89.4 µM); in data set [4] (setting [10]), 12.8 µg/mL.
As for `CC(=O)O[C@@H]1C[C@@]23C[C@@]24CC[C@H](O[C@@H]2OC[C@@H](O)[C@H](O)[C@H]2O)C(C)(C)[C@@H]4CC[C@H]3[C@]2(C)C[C@@H]3O[C@]4(C[C@@H](C)[C@@H]3[C@@]12C)O[C@H](O)[C@@]1(C)O[C@@H]41` [actein], the IC50 in data set [1] (setting [9]) was 55.7 µg/mL; in [2], 37.9 µg/mL (≈ 56 µM); in data set [3], 41.7 µg/mL (≈ 61.6 µM); in data set [4] (setting [10]) it was 36.3 µg/mL.
For `CC(C)c1cc2c(c(O)c1O)[C@@]1(C(=O)O)CCCC(C)(C)[C@@H]1CC2` [carnosic acid], the IC50 stood at 2.03 µg/mL (≈ 6.11 µM) in [5] (setting [11]); 10.7 µg/mL in data set [1] (setting [9]); 14.1 µg/mL (≈ 42.4 µM) in data set [2]; 2.13 µg/mL (≈ 6.41 µM) with HT29 colon cancer cells (setting [12]); 13 µg/mL (≈ 39.1 µM) in data set [3]; 10 µg/mL in data set [4] (setting [10]).
For the compound `COc1cc(/C=C/C(=O)CC(=O)/C=C/c2ccc(O)c(OC)c2)ccc1O` [curcumin], on Na^+/K^+-ATPase (as previously described), the IC50 is 2 µM. Moreover, in data set [6], the “Ratio, ATM (NM_000051)” value amounted to 15.43; the “Ratio, CDC6 (NM_001254)” value was determined as 2.68; the “Ratio, CDC20 (NM_016263)” value stood at 19.4; the “Ratio, CDKN1B (NM_004064)” value came to 2.77. Also, in data set [6], the “Ratio, E2F4 (NM_001950)” value was found to be 2.37; the “Ratio, E2F5 (NM_001951)” value is on record as 2.94; the “Ratio, GSK3B (NM_002093)” value was 2.09; the “Ratio, ORC1L (NM_004153)” value worked out at 3.10. Also, in [6], the “Ratio, PLK1 (NM_005030)” value was found to be 2.01; the “Ratio, SKP2 (NM_005983)” value worked out at 5.03; the “Ratio, SMAD4 (NM_005359)” value is 3.49; the “Ratio, SMC3 (NM_005445)” value is reported as −3.89. In data set [6], the “Ratio, STAG1 (NM_005862)” value came to 2.37; the “Ratio, STAG2 (NM_001042749)” value was −3.56; the “Ratio, ZBTB17 (NM_003443)” value stood at 2.48. In data set [6] (text prints fold), the “Ratio, ATM (NM_138292)” value was 36 and 35.94.
On to `C[C@H]1O[C@@H](O[C@H]2[C@@H](O)C[C@H](O[C@H]3[C@@H](O)C[C@H](O[C@H]4CC[C@@]5(C)[C@H](CC[C@@H]6[C@@H]5CC[C@]5(C)[C@@H](C7=CC(=O)OC7)CC[C@]65O)C4)O[C@@H]3C)O[C@@H]2C)C[C@H](O)[C@@H]1O` [digitoxin, reference compound], for which the IC50 was 0.12 µg/mL (≈ 0.157 µM) in data set [5] (96 h, read-out: Growth inhibitory Activity (ug/mL), HeLa Cells); under 0.1 µM on Na^+/K^+-ATPase (comparator, unit inferred); 0.13 µg/mL (≈ 0.17 µM) in the data set with HT29 colon cancer cells (HT-29, 96 h, read-out: Growth inhibitory Activity (ug/mL), HT29 Cells).
Regarding `C[C@H]1O[C@@H](O[C@H]2[C@@H](O)C[C@H](O[C@H]3[C@@H](O)C[C@H](O[C@H]4CC[C@@]5(C)[C@H](CC[C@@H]6[C@@H]5C[C@@H](O)[C@]5(C)[C@@H](C7=CC(=O)OC7)CC[C@]65O)C4)O[C@@H]3C)O[C@@H]2C)C[C@H](O)[C@@H]1O` [digoxin, reference compound], the IC50 is over 10 µg/mL in [7]; 0.12 µg/mL (≈ 0.154 µM) in [5] (read-out: IC50, growth inhibitory activity on HeLa cells); 0.008 µg/mL in data set [1] (setting [9]); 0.0037 µg/mL (≈ 0.00474 µM) in data set [2]; 0.13 µg/mL (≈ 0.166 µM) in the data set on HT29 colon cancer cells (HT-29, read-out: IC50, growth inhibitory activity on HT29 cells); over 0.025 µg/mL in data set [3]. Further, the IC50 in data set [4] (setting [10]) was found to be 0.0245 µg/mL.
Consider `C(=Cc1ccccc1)c1ccccc1` [stilbene], for which the “IC50, growth inhibitory activity on HeLa cells” value in data set [5] (MTT, 96 h (Figure 1 legend; table footnote prints 120 h)) is on record as “greater than 100 µg/mL”.
For the compound `Cc1coc2c1C(=O)C(=O)c1c-2ccc2c1CCCC2(C)C` [tanshinone IIA], the “percentage of viable cells” value in data set [8] (tanshinone IIA 0.2 μM alone, 90% curcuminoids experiment) was 134%. Also, in [8] (tanshinone IIA 0.2 µΜ alone, 95% curcuminoids experiment), the percent viable cells came out at 91.96%. Besides, the IC50 is 1.4 µg/mL (≈ 4.76 µM) in data set [5] (Figure 1C, 96 h, MTT, read-out: Growth inhibitory Activity (ug/mL), HeLa Cells); 1.33 µg/mL (≈ 4.52 µM) in data set [5] (setting [11]); 2 µg/mL in [1] (type 1 integrant, 120 h, MTT, read-out: IC50, growth inhibitory activity on W12 clone 20822); 2.1 µM in data set [1] (value quoted with the RT-PCR results, read-out: IC50, relative growth inhibitory effect on 20822); 1.4 µg/mL (≈ 4.76 µM) in data set [2]; 1.3 µg/mL (≈ 4.42 µM) with HT29 colon cancer cells (HT-29, Figure 1C, 96 h, MTT, read-out: Growth inhibitory Activity (ug/mL), HT29 Cells). Moreover, the IC50 stood at 1.27 µg/mL (≈ 4.31 µM) in the data set with HT29 colon cancer cells (setting [12]); 2.3 µg/mL (≈ 7.81 µM) in data set [3] (episomal, MTT); 3.1 µg/mL in data set [4] (type 2 integrant, 120 h, MTT, read-out: IC50, growth inhibitory activity on W12 clone 20862); 2.8 µM in data set [4] (value quoted with the RT-PCR results, read-out: IC50, relative growth inhibitory effect on 20862). Moreover, the “low concentration with significant activity on 20850 (episomal) cells” value in [3] (p = 0.0058) was 2.5 µM.
For the compound lambda carrageenan, the “activity on 20850 cells, in words” value in data set [3] (after sonication, inverse pattern in a repeat experiment) is on record as “highly active”.
